Laboratory results from patent US11358968B2, “Substituted epoxyeicosatrienoic acid (EET) analogs for treatment of kidney disease” (THE MEDICAL COLLEGE OF WISCONSIN, INC., priority 2017, dated 2022).
“Also recorded” adds a separate entry of the source. Where two headings read alike, the source gives them in different places.

Columns and labels:
[1] = Acute i.v. infusion in rats; plasma and kidney levels by LC-MS-MS; type: in vivo, rat; settings: for concentration at 6 h: male, Sprague-Dawley, intravenous
Protocol: For EET analog kidney-targeted delivery, we conjugated an EET analog to folic acid because there is a high concentration of folate receptors in renal tissue. The EET analog was conjugated to folic acid via a PEG-diamine linker. Next, we compared the kidney targeted EET analog, EET-FO1, to a well-studied EET analog, EET-A. EET-A or EET-FO1 was infused i.v. (10 mg/kg/hr) for 6 hours via the rat jugular vein. Plasma and kidney tissue were collected and EET-A or EET-FO1 measured by LC-MS-MS. EET-A plasma level was 1.6 ng/mL, but EET-A was undetectable in the kidney. On the other hand, EET-FO1 was 6.5 ng/mL in plasma and 26.7 ng/mL in kidney tissue. […] Experiments were conducted to compare EET-FO1 and EET-A to decrease cisplatin-induced nephrotoxicity. […] Despite it almost 2×-greater molecular weight compared with EET-A, EET-FO1 was effective in lowering BUN and NAG at 20 mg/kg/d and at a 10-fold lower dose of 2 mg/kg/d.
Acute study: Overnight fasted (12-14 hrs) male SD rats (10 weeks old) were anesthetized with sodium pentobarbital (60 mg/kg, i.p.). After a tracheostomy, the left jugular vein was cannulated to continuously infuse vehicle or EET-A or folate conjugated EET analog at a rate of 6 ml/kg/hr for 6 hours. Plasma and kidney sample were collected at the end of the protocol, snap-frozen in liquid nitrogen and stored at −80° C. until analyzed for LC-MS. EET-A and folate conjugated EET analog solutions were prepared in 0.1% DMSO and 1% PEG-400 in saline.
Mass spectrometric analysis: Plasma and kidney levels of EET-A and folate conjugated EET-A were measured by LC-ESI-MS method. Samples were prepared from 200 μl of plasma or kidney homogenate from EET-A or folate conjugated EET-A treated rats using solid phase extraction with Varian Bond Elut® C18 column (Agilent Technologies, Santa Clara, Calif., USA). The extracted samples were stored at −80° C. before analysis. Samples were warmed to room temperature, dried in a stream of nitrogen and the residue reconstituted in 20 μL of acetonitrile, […]. Components were resolved on a 250 mm×2.0 mm Kromasil C18-column packed with 5 μm diameter particles having 100 Å pores. Gradient elution from 80% A to 10% A was used with elutant flow of 0.2 mL/min. Solvent A was water with 0.01% formic acid and solvent B was acetonitrile with 0.01% formic acid using the following profile: 20% B to 30% B in 10 min, 30% B to 60% B in 17 min, 60% B to 90% B in 28 min, hold at 100% for 7 min, then 7 min re-equilibration. MS/MS analysis was performed on an Agilent 6460 triple quadrupole mass spectrometer equipped with a Jet Stream™ interface. Precursor ion, product ion, collision energy and fragmenter voltage were optimized for each compound in negative polarity. Other parameters were as follows: drying gas flow=10 L/min at 325° C., nebulizer=20 psi, sheath gas flow=11 L/min at 325° C., capillary=3.5 kV, and nozzle=1.0 kV. Results acquired at unit-mass resolution.

[2] = earlier filings PCT/US2012/032090, US 9,422,318, US 9,127,027; cited from earlier work
WKY rats = assay: Cisplatin-induced nephrotoxicity in WKY rats (chronic study; BUN, NAG, renal histology); type: in vivo, rat; settings: for lowering BUN / lowering NAG: cisplatin-treated WKY rats
Protocol: For EET analog kidney-targeted delivery, we conjugated an EET analog to folic acid because there is a high concentration of folate receptors in renal tissue. The EET analog was conjugated to folic acid via a PEG-diamine linker. Next, we compared the kidney targeted EET analog, EET-FO1, to a well-studied EET analog, EET-A. EET-A or EET-FO1 was infused i.v. (10 mg/kg/hr) for 6 hours via the rat jugular vein. Plasma and kidney tissue were collected and EET-A or EET-FO1 measured by LC-MS-MS.
Chronic study: In chronic study, male Wistar-Kyoto (WKY) rats weighing 180-200 g (Charles River, Mass., USA) were used. The rats were assigned into […] (n=4 in each group). […] While, rats of groups 2,3,4&5 were pre-treated with vehicle (20% DMSO in PEG-400 v/v), EET analog (EET analog in double distilled water) or novel folate conjugated EET analog F01 at 20 mg/kg and 2 mg/kg doses (prepared in a mixture of 20% DMSO in PEG400), respectively in osmotic mini pump (2 ML, Alzet, Cupertino, C A) for seven days. […] One day before euthanasia, the urine of each rat was collected over a 24-h period. […] A schematic of the protocol is depicted in FIG. 1.
Biochemical analysis:The levels of blood urea nitrogen (BUN) (BioAssay Systems, Hayward, Calif., USA) and the activity of urinary N-acetyl-β-(D)-glucosaminidase (NAG) in the urine was measured by a kit from Diazyme (Diazyme Laboratories, Poway, Calif., USA).

[3] = rat, i.v. infusion 10 mg/kg/hr for 6 hours via jugular vein, LC-MS-MS
[4] = five days following cisplatin 7 mg/kg ip, compared with EET-A 10 mg/kg ip

plasma level [1, 3] [ng/mL]	rate of reaching the plasma and the kidney, versus non-folate conjugated form ([1]; acute i.v. study)	plasma level of F01 compared to EET-A ([1]; after 6-hour continuous i.v. administration of equal doses (FIG. 2)) [fold]	kidney targeting ([1]; conclusion from plasma and kidney levels after 6 h i.v. infusion)	concentration at 6 h ([1]; kidney, rat, i.v. infusion 10 mg/kg/hr for 6 hours via jugular vein, LC-MS-MS, read-out: level in kidney tissue) [ng/mL]	concentration at 6 h ([1]; plasma, rat, i.v. infusion 10 mg/kg/hr for 6 hours via jugular vein, LC-MS-MS, read-out: plasma level) [ng/mL]	SMILES	level in kidney tissue [1, 3]	oral activity and pharmacokinetic properties [2]	lowering BUN (WKY rats; 2 mg/kg/d)	lowering NAG (WKY rats; 2 mg/kg/d)	lowering BUN (WKY rats; 20 mg/kg/d)	lowering NAG (WKY rats; 20 mg/kg/d)	decreasing BUN (WKY rats; [4])	decreasing NAG (WKY rats; [4])	decreasing renal histological injury (WKY rats; [4])	kidney protective action against cisplatin nephrotoxicity compared to EET-A (from BUN and urinary NAG) (WKY rats; pre-treatment, then 5 days treatment after cisplatin (FIG. 3), listed as F01)
1.6						CCCCCNC(=O)NCCCC/C=C\CCCCCCC(=O)N[C@@H](CC(=O)O)C(=O)O [EET-A, reference compound]	undetectable; also recorded: almost un-detectable	orally active with good pharmacokinetic properties								
						CCCCCCC(=O)N(CCCCCOc1cccc2sc(NC(=O)C(C)(C)C)nc12)C(C)C [EET-B]		orally active with good pharmacokinetic properties								
	faster rate	5	targets the kidney	26.7	6.5	CCCCCNC(=O)NCCCC/C=C\CCCCCCC(=O)NCCOCCOCCNC(=O)CC[C@H](NC(=O)c1ccc(NCc2cnc3nc(N)[nH]c(=O)c3n2)cc1)C(=O)O [EET-FO1]			effective	effective	effective	effective	as effective as EET-A	as effective as EET-A	as effective as EET-A	better kidney protective action; also recorded: superior kidney protective action
